The values that follow come from patent US20060183773A1, “Uses of methylphenidate derivatives” (priority 2005, published 2006).

Type in all cases: cell-based, human
In one assay the test system is IL-8. Description: IL-8 production by CD3/CD28-stimulated TRiPS T-cell line, ELISA. The note with it: 15 μg/ml; CD3/CD28 Dynabeads, 24 hours.
The subject of the next assay is PI3kinaseP85. Kind of assay: Custom AntibodyArray, TRiPS cells: PI3kinaseP85. As to conditions: 15 μg/ml, 30 minutes. The protocol:
(§1) Day 18 TRiPS cells, 1×10^6, were incubated for 30 minutes at 37° C., either with nothing added (“Nil”), with 1 μl CD3/CD28 Dynabeads (Dynal, Oslo, Norway) (“CD3/CD28 beads”) per 100,000 cells, or with CD3/CD28 beads and 15 μg/ml of the compound of formula II (Cpd II). After the incubation, the cells were lysed in Cell-Lytic Mammalian Cell Extraction Reagent (Sigma). After centrifugation to pellet cellular debris, the supernatants (cell extracts) were obtained.
(§2) The cell extracts (supernatants) were then analyzed using a Custom AntibodyArray™ manufactured by Hypromatrix Inc., Worcester, Mass., following the manufacturer's instructions. The Custom AntibodyArray™ is a nylon membrane blotted with antibodies to the proteins listed below. Briefly, the cell extracts were incubated with duplicate Custom AntibodyArray™'s for 2 hours at room temperature with slow shaking, followed by three washes with Tris buffer (150 mM NaCl, 25 mM Tris, 0.05% Tween-20, pH 7.5). HRP-labeled antibodies specific for phosphorylated-tyrosine, phosphorylated-serine and phosphorylated-threonine in Tris buffer were added, and the arrays incubated for 2 hours. After three more washes with Tris buffer, a peroxidase-reactive luminescent substrate was added. The arrays were visualized by exposure to X-ray film. Densitometry of the X-ray films was measured by scanning and computer analysis.

Another assay deals with JNK1. Description: Custom AntibodyArray, TRiPS cells: JNK1. The note with it: 15 μg/ml, 30 minutes. The protocol:
as §1, §2

The next assay has as its system IkB-β. Description: Custom AntibodyArray, TRiPS cells: IkB-β. The note with it: 15 μg/ml, 30 minutes. Here is the method:
as §1, §2

The subject of another assay is IL-7y. Description: Custom AntibodyArray, TRiPS cells: IL-7y. As to conditions: 15 μg/ml, 30 minutes. Here is the method: as §1, §2
Another assay deals with STAT6. Kind of assay: Custom AntibodyArray, TRiPS cells: STAT6. The note with it: 15 μg/ml, 30 minutes. Here is the method: as §1, §2
The next assay deals with IkB-α. Kind of assay: Custom AntibodyArray, TRiPS cells: IkB-α. As to conditions: 15 μg/ml, 30 minutes. Here is the method:
as §1, §2

Another assay concerns STAT2. Description: Custom AntibodyArray, TRiPS cells: STAT2. As to conditions: 15 μg/ml, 30 minutes. The protocol: as §1, §2

`COC(=O)C(c1ccc(-c2ccccc2)cc1)C1CCCCN1` (centres unmarked) [Cpd II]: the “IL-8 production by the TRiPS cell line” value in the assay with IL-8 is recorded as “no effect on IL-8 production”. The “Effect of Cpd II on the protein in CD3/CD28 stimulated TRiPS cells” value in the assay on PI3kinaseP85 is on record as “Activated”; in the assay with JNK1, “Decreased level back to basal levels (Nil control)”; with IkB-β, “Decreased level back to basal levels (Nil control)”; with IL-7y, “Decreased level back to basal levels (Nil control)”; with STAT6, “Slightly decreased the level”; in the assay on IkB-α, “Slightly decreased the level”. Besides, in the assay on STAT2, the “Effect of Cpd II on the protein in CD3/CD28 stimulated TRiPS cells” value is recorded as “No effect”.
